Reference: the NIST ThermoML archive (doi:10.1021/acs.jced.5b00285)

Conditions: 101.33 kPa, Liquid; for electrical conductivity: Alternating current cell with electrodes; for mass density: Vibrating tube method

CCCCCCCCn1cc[n+](C)c1.O=S(=O)([N-]S(=O)(=O)C(F)(F)F)C(F)(F)F
Conditions	electrical conductivity [S/m]
273.15 K	0.0308
278.15 K	0.0432
283.15 K	0.059
288.15 K	0.0784
293.15 K	0.102
298.15 K	0.131
303.15 K	0.164
308.15 K	0.204
313.15 K	0.246
318.15 K	0.298
323.15 K	0.351
328.15 K	0.415
333.15 K	0.478
338.15 K	0.556
343.15 K	0.627
348.15 K	0.72
353.15 K	0.801
358.15 K	0.906
368.15 K	1.11
378.15 K	1.34
388.15 K	1.59
398.15 K	1.85
408.15 K	2.13
418.15 K	2.42
428.15 K	2.72
438.15 K	3.04
448.15 K	3.36
458.15 K	3.69
468.15 K	4.03

CCCCn1cc[n+](C)c1.O=S(=O)([N-]S(=O)(=O)C(F)(F)C(F)(F)F)C(F)(F)C(F)(F)F [1-butyl-3-methylimidazolium bis(perfluoroethylsulfonyl)imide]
Conditions	electrical conductivity [S/m]	mass density [kg/m3]	viscosity [mPa·s]
273.15 K	0.0324	1539.6	579.1
278.15 K	0.046	1534	398.8
283.15 K	0.0634	1528.5	282.2
288.15 K	0.0853	1523.88	205.3
293.15 K	0.112	1518.55	153.3
298.15 K	0.145	1513.25	115.9
303.15 K	0.183	1507.96	89.72
308.15 K	0.227	–	–
313.15 K	0.278	1497.47	56.57
318.15 K	0.336	–	–
323.15 K	0.4	1487.06	37.86
328.15 K	0.475	–	–
333.15 K	0.549	1476.73	26.63
338.15 K	0.638	–	–
343.15 K	0.724	1466.47	19.48
348.15 K	0.831	–	–
353.15 K	0.928	1456.27	14.74
358.15 K	1.05	–	–
363.15 K	–	1446.14	11.48
368.15 K	1.29	–	–
378.15 K	1.56	–	–
388.15 K	1.86	–	–
398.15 K	2.16	–	–
408.15 K	2.49	–	–
418.15 K	2.83	–	–
428.15 K	3.19	–	–
438.15 K	3.56	–	–
448.15 K	3.94	–	–
458.15 K	4.33	–	–
468.15 K	4.72	–	–

CCCCCC[n+]1ccn(C)c1.O=S(=O)([N-]S(=O)(=O)C(F)(F)F)C(F)(F)F
Conditions	electrical conductivity [S/m]	mass density [kg/m3]	viscosity [mPa·s]
278.15 K	0.0776	1391.02	210.6
283.15 K	–	1386.34	–
288.15 K	0.136	1381.65	116.7
293.15 K	–	1376.98	–
298.15 K	0.218	1372.35	70.51
303.15 K	–	1367.74	–
308.15 K	0.328	1363.15	45.51
313.15 K	–	1358.58	–
318.15 K	0.466	1354.02	31.03
323.15 K	–	1349.49	–
328.15 K	0.634	1344.97	22.14
333.15 K	–	1340.47	–
338.15 K	0.83	1335.98	16.4
343.15 K	–	1331.51	–
348.15 K	1.05	1327.05	12.59
353.15 K	–	1322.61	–
358.15 K	1.3	1318.18	9.957
363.15 K	–	1313.77	–
368.15 K	1.58	–	8.066
378.15 K	1.88	–	6.673
388.15 K	2.19	–	5.623
398.15 K	2.53	–	4.819
408.15 K	2.88	–	4.19
418.15 K	3.24	–	–
428.15 K	3.62	–	–
438.15 K	4.01	–	–
448.15 K	4.41	–	–
458.15 K	4.82	–	–
468.15 K	5.24	–	–

CC(=O)[O-].CCn1cc[n+](C)c1 [1-ethyl-3-methylimidazolium acetate]
Conditions	electrical conductivity [S/m]	mass density [kg/m3]	viscosity [mPa·s]
278.15 K	–	1111.95	701.2
288.15 K	–	1105.67	288
298.15 K	0.278	1099.44	141.1
308.15 K	0.471	1093.24	78.27
318.15 K	0.733	1087.13	47.69
328.15 K	1.07	1081.09	31.26
338.15 K	1.48	1075.11	21.77
348.15 K	1.96	1069.17	16.01
358.15 K	2.5	1063.3	12.19
368.15 K	3.11	–	9.558
378.15 K	3.8	–	7.71
388.15 K	4.53	–	6.362
398.15 K	5.31	–	5.356
408.15 K	6.13	–	4.589
418.15 K	6.92	–	–
